Measured values as given in patent publication US11319348B2, “Synthetic beta-amyloid peptides capable of forming stable antigenic oligomers” (The Regents of the University of California, priority 2016, dated 2022).
“Also recorded” adds a separate entry of the source.

Experiments:
SH-SY5Y cells = test: LDH release assay; format: cell-based, human
Protocol: Aβ is known to be toxic toward neurons and neuronally derived cells (I. Benilova, et al., 2012, cited supra). To corroborate the toxicity of Aβ, we prepared oligomers of Aβ42 and studied their toxicity toward a human neuroblastoma cell line, SH-SY5Y. Aβ oligomers were prepared according to the procedure developed by Teplow and coworkers using recombinantly expressed Aβ42 pretreated with NH4OH (purchased from rPeptide) (D. B. Teplow, Methods Enzymol. 2006 413, 20-33; and Y. Fezoui, et al., Amyloid. 2000 7, 166-178; the disclosures of which are incorporated herein by reference). Under the conditions of the oligomer preparation, Aβ42 forms predominantly monomer, trimer, and tetramer as assessed by SDS-PAGE (FIG. 28A). It was also observed that bands migrated with molecular weights consistent with a pentamer and hexamer. SH-SY5Y cells were treated with varying concentrations of Aβ42, and toxicity was evaluated using a lactate dehydrogenase (LDH) release assay. Aβ42 increased LDH release in a dose-dependent manner at concentrations as low as 2.5 μM, corroborating the toxicity of Aβ42 (FIG. 28B).
It was hypothesized that trimers 3 and 4 may elicit toxicity similarly to Aβ42. The toxicities of trimers 3 and 4 towards SH-SY5Y cells were evaluated using an LDH assay, using deionized water (vehicle) and peptides 1 and 2 as controls. Trimer 4 increased LDH release in a dose-dependent manner at concentrations as low as 1.5 μM, indicating toxicity toward SH-SY5Y cells (FIG. 29A). LDH release was observed as early as 48 h after addition to the cells and reached a maximum after 72 h.
Many oligomers formed by full-length Aβ are toxic toward cells (I. Benilove, E. Karan, and B. De Strooper, Nat. Neurosci. 2012 15, 349-357; and M. E. Larson and S. E. Lesne J. Neurochem. 2012 120, 125-139; the disclosures of which are incorporated herein by reference). To test whether the oligomers formed by peptide 8 are also toxic, the toxicity of peptide 8 toward neuronally derived SH-SY5Y cells were evaluated using a lactate dehydrogenase (LDH) release assay. Peptide 8 and 10 were compared to investigate how the hexamer-forming Aβ16-36-derived peptide compares to a non-oligomerizing homologue. The toxicity of peptides 2 and 11 were also evaluated to better understand the relationship between oligomerization and toxicity.
The toxicities of peptides 1 and […], and trimers 3 and 4 toward SH-SY5Y cells were assessed by LDH release and caspase-3 activation assays. Cells were incubated in the presence or absence of equivalent concentrations of peptides 1 or 3, or trimers 3 and 4 for 72 h in 96-well plates. The LDH release assay was performed using the Pierce LDH Cytotoxicity Assay Kit from Thermo Scientific. The caspase-3 assay was performed using the Roche APO-One Homogeneous Caspase-3/7 Assay. Experiments were performed in replicates of five and an additional 10 wells were used for controls. Cells were cultured in the inner 60 wells (rows B-G, columns 2-11) of the 96-well plate. DMEM:F12 media (100 μL) was added to the outer wells (rows A and H, columns 1 and 12), in order to ensure the greatest reproducibility of data generated in the inner wells.
A 10 mg/mL stock solution of peptides 1 or […], or trimers 3 and 4 was prepared gravimetrically by dissolving 1 mg of each compound in 100 μL of deionized water that was either filtered through a 0.2 μm syringe filter or autoclaved. The stock solution was used to create 180 μM working solutions of peptides 1 or 3, or 60 μM working solutions of trimers 3 and 4 (these solutions contain equivalent concentrations of peptide). The 180 μM working solutions of peptides 1 and 2 were serially diluted with deionized water to create 90 μM working solutions of peptides 1 and 2. The 60 μM working solutions of trimers 3 and 4 were serially diluted with deionized water to create 30 μM, 15 μM, and 7.5 μM working solutions of trimers 3 and 4.
SH-SY5Y cells were plated in a 96-well plate at 30,000 cells per well. […]

[1] = Tricine SDS-PAGE with silver staining; format: physicochemical
Source text: Trimer 3 migrates as a single band at a molecular weight consistent with a hexamer. Trimer 4, in contrast, migrates as two distinct bands: a band consistent with the molecular weight of a dodecamer, and a band consistent with the molecular weight of a trimer.
Peptide 8 assembles to form a hexamer in SDS-PAGE. […] To further confirm the oligomerization state of […], it was compared to covalent trimers 3 and 4 (FIGS. 19A and 19B), which was previously determined to migrate respectively as 10.6 kDa hexamers and 21.2 kDa dodecamers in equilibrium with the 5.3 kDa trimers. Peptide 8 migrates at the same molecular weight as the hexamer band of trimer 3, providing further evidence that peptide 8 assembles to form a hexamer in SDS-PAGE.
The oligomerization of peptides 1 and 2 and trimers 3 and 4 was studied by Tricine SDS-PAGE.
Each peptide or trimer was dissolved in deionized water to a concentration of 10 mg/mL. An aliquot of the 10 mg/mL solutions was diluted with deionized water to create 2 mg/mL solutions of peptides 1 and 2, or 0.12 mg/mL solutions of trimers 3 and 4. The […] of peptides 1 and 2, as well as the 0.12 mg/mL solutions of trimers 3 and 4 were further diluted with 2×SDS-PAGE loading buffer (100 mM Tris buffer at pH 6.8, 20% (v/v) glycerol, and 4% SDS) to create 1 mg/mL working solutions of peptides 1 and 2, and 0.06 mg/mL working solutions of trimers 3 and 4. A 5 μL aliquot of each working solution was run on a 16% polyacrylamide gel with a 4% stacking polyacrylamide gel. The gels were run at a constant 60 volts at 4° C.
Staining with silver nitrate was used to visualize peptides 1 and 2 and trimers 3 and 4 in the SDS-PAGE gel. Briefly, the gel was removed from the casting glass and rocked in fixing solution (50% (v/v) methanol and 5% (v/v) acetic acid in deionized water) for 20 min. Next, the fixing solution was discarded and the gel was rocked in 50% (v/v) methanol for 10 min. Next, the 50% methanol was discarded and the gel was rocked in deionized water for 10 min. Next, the water was discarded and the gel was rocked in 0.02% (w/v) sodium thiosulfate in deionized water for 1 min. The sodium thiosulfate was discarded and the gel was rinsed with deionized water (2×). After the last rinse, the gel was submerged in chilled 0.1% (w/v) silver nitrate in deionized water and rocked at 4° C. for 20 min. Next, the silver nitrate solution was discarded and the gel was rinsed with deionized water (2×). To develop the gel, the gel was incubated in developing solution (2% w/v sodium carbonate, 0.04% formaldehyde until the desired intensity of staining was reached (˜1-3 min). When the desired intensity of staining was reached, the development was topped by discarding the developing solution and submerging the gel in 5% acetic acid.

[2] = size exclusion chromatography in Tris buffer; format: physicochemical
Source text: The elution profile of peptide 8 was compared to the size standards vitamin B12, aprotinin, and cytochrome c, as well as peptide 2. Peptide 8 elutes as a broad peak with three distinct humps (FIG. 41B). […] Peptide 2 elutes as two distinct peaks: a larger peak with an elution volume consistent with the molecular weight of a dimer, and a smaller peak with an elution volume consistent with the molecular weight of a trimer (FIG. 41B). […]

Substance | dose dependence of LDH release (SH-SY5Y cells; 50, 100 and 200 μM) | LDH release / toxicity toward SH-SY5Y cells, in words (SH-SY5Y cells; SH-SY5Y cells) | lowest concentration with increased LDH release / toxicity (concentrations as low as) (SH-SY5Y cells; SH-SY5Y cells) | oligomer state by migration in SDS-PAGE [1] | oligomer size ([2]; SEC) | oligomer state consistent with SEC elution volume ([2]; absence of SDS)
peptide 8: Aβ16-22 and Aβ30-36 β-strands linked by two δOrn turn units, N-methyl on Phe19, native Met35 (Seq. ID 33-34) | No dose dependence | toxic | 50 µM | hexamer | monomer, dimer,; also recorded: trimer | dimers and trimers; also recorded: monomer, dimer, and trimer
Aβ42: oligomers prepared from recombinantly expressed Aβ42 pretreated with NH4OH (purchased from rPeptide) [reference compound] | – | – | 2.5 µM | – | – | –
